The results in this text go back to ChEMBL document CHEMBL1201862, “PubChem BioAssay data set” (2004).

SMILES strings stand for the structures.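 The compound was tested at five concentrations on cells cultured in 96-well plates, with a 48-hour exposure period. At the GI50, growth is halved.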 Activity calls are given as the source filed them. No stated cut-off is given here; in the data, active = GI50 up to about 1.1 µM and inactive = higher. Residues, ends and D or L forms follow the SMILES beside them.

Test in all cases: inhibition of tumour cell growth, NCI panel, 48 h
In assay [1] the test system is NCI-H522.
For assay [2], the system named is LOX IMVI.
Assay [3] relates to T47D.
For assay [4], the system named is CCRF-CEM.
For assay [5], the system named is M14.
Assay [6] relates to SK-MEL-2.
Assay [7] relates to UACC-62.
The test system of assay [8] is SF-539.
In assay [9] the test system is A549.
Assay [10] concerns MDA-MB-435.
The subject of assay [11] is 786-0.
Assay [12] deals with SK-MEL-28.
For assay [13], the system named is HOP-62.
Assay [14] relates to UO-31.
Assay [15] relates to SR.
For assay [16], the system named is MOLT-4.
Assay [17] concerns OVCAR-5.
Assay [18] deals with COLO 205.
In assay [19] the test system is EKVX.
Assay [20] has as its system MCF7.

On to `C[C@]12CC[C@H](O)C[C@@H]1CC[C@@H]1[C@@H]2CC[C@]2(C)[C@@H](C3=CC(=O)OC3)CC[C@]12O`, for which the GI50 in assay [1] was 0.719 µM (active); in [2] it was 2.59 µM (inactive); in assay [3], 3.77 µM (inactive); in assay [4], 0.76 µM (active); in assay [5], 3.45 µM (inactive); in [6], 3.33 µM (inactive). Further, the GI50 was 3.55 µM (inactive) in assay [7]; 1.29 µM (inactive) in assay [8]; 0.627 µM (active) in [9]; 3.03 µM (inactive) in assay [10]; 1.95 µM (inactive) in assay [11]; 7.5 µM (inactive) in assay [12]. Also, the GI50 is 1.6 µM (inactive) in assay [13]; 2.37 µM (inactive) in assay [14]; > 100 µM (inactive) in assay [15]; 0.359 µM (active) in assay [16]; 4.25 µM (inactive) in assay [17]; 3.18 µM (inactive) in assay [18]. Further, the GI50 in assay [19] is 2.38 µM (inactive).

With `Cn1cc(C2NC(=O)c3ccccc3N2)c2ccccc21` (centres undefined), the GI50 in [1] was 0.695 µM (active); in [2] it was 0.877 µM (active); in [4], 0.413 µM (active); in assay [5], 0.578 µM (active); in [6], 2.02 µM (inactive); in assay [7], 0.373 µM (active). Besides, the GI50 is 1.86 µM (inactive) in assay [8]; 1.22 µM (inactive) in [9]; 0.0785 µM (active) in [10]; 0.955 µM (active) in assay [11]; 0.643 µM (active) in assay [12]; 0.861 µM (active) in assay [13]. The GI50 was > 100 µM (inactive) in assay [14]; 0.255 µM (active) in [16]; 0.124 µM (active) in assay [20]; 1.18 µM (inactive) in [17]; 0.925 µM (active) in assay [18]; 0.998 µM (active) in [19].

Turning to `CSC(SC)=C(C(=O)O)P(=O)(O)O`, the GI50 in [1], in assay [2], in assay [3], in [4], in assay [5] and in [6] was > 100 µM (inactive) in each case. In addition, the GI50 in assay [7], in assay [8], in [9], in assay [11], in assay [12] and in assay [13] was > 100 µM (inactive) each time. Besides, the GI50 in [15], in assay [16], in assay [20], in assay [17], in assay [18] and in assay [19] was > 100 µM (inactive) each time.

On to `CC(=O)n1nc(-c2ccccc2)n(/N=C/c2ccc([N+](=O)[O-])cc2)c1=O`, for which the GI50 in assay [1] is 51.3 µM (inactive); in assay [2] it was > 100 µM (inactive); in assay [3], > 100 µM (inactive); in [4], > 100 µM (inactive); in assay [5], > 100 µM (inactive); in assay [6], > 100 µM (inactive). In addition, the GI50 in assay [7], in [8], in assay [9], in [10], in assay [11] and in [12] was > 100 µM (inactive) each time. In addition, the GI50 in [14] was > 100 µM (inactive); in [15], > 100 µM (inactive); in assay [16] it was > 100 µM (inactive); in assay [17], > 100 µM (inactive); in assay [18], > 100 µM (inactive); in assay [19], 31.1 µM (inactive).

As to `CC1CN=C(Nc2ccc(F)cc2F)S1` (centres undefined), the GI50 in assay [2] was > 100 µM (inactive); in [3], 88.9 µM (inactive); in assay [4], > 100 µM (inactive); in assay [6] it was > 100 µM (inactive); in [8], > 100 µM (inactive); in assay [9] it was > 100 µM (inactive). Moreover, the GI50 in [11], in assay [12], in [13], in assay [14], in assay [15] and in [16] was > 100 µM (inactive) in each case. Moreover, the GI50 is > 100 µM (inactive) in [20], > 100 µM (inactive) in assay [17], > 100 µM (inactive) in assay [18] and 75 µM (inactive) in assay [19].

As for `NC1CNC(=O)c2cscc21` (centres undefined), the GI50 in assay [1], in assay [2], in assay [4], in assay [5], in assay [7] and in assay [9] was > 100 µM (inactive) throughout. In addition, the GI50 in assay [10], in assay [11], in [12], in [14], in [15] and in [16] was > 100 µM (inactive) throughout. The GI50 in [20], in assay [17], in assay [18] and in assay [19] was > 100 µM (inactive) in each case.

As to `O=C(O)c1ccc(NC(NC(=O)C(C(F)(F)F)C(F)(F)F)(C(F)(F)F)C(F)(F)F)cc1`, the GI50 in [2], in assay [3], in assay [4], in [5], in assay [6] and in assay [8] was > 100 µM (inactive) in each case. Moreover, the GI50 in assay [9], in [10], in assay [11], in assay [12], in [14] and in [15] was > 100 µM (inactive) in each case. Besides, the GI50 in assay [16], in assay [17], in assay [18] and in [19] was > 100 µM (inactive) throughout.

Regarding `Cc1ccc(OC(=O)N2C/C(=C\c3ccccc3)C(=O)/C(=C/c3ccccc3)C2)cc1`, the GI50 is 13 µM (inactive) in [1]; 3.29 µM (inactive) in [2]; > 100 µM (inactive) in assay [3]; 3.2 µM (inactive) in assay [4]; 8.79 µM (inactive) in assay [5]; 42.6 µM (inactive) in [6]. Further, the GI50 in assay [7] was 23.5 µM (inactive); in [8] it was 26.4 µM (inactive); in assay [9], > 69.5 µM (inactive); in assay [11], 17.1 µM (inactive); in assay [12], 25.7 µM (inactive); in assay [13], 18.5 µM (inactive). The GI50 in assay [14] is 36.9 µM (inactive); in assay [15], 3.43 µM (inactive); in assay [16], 4.07 µM (inactive); in assay [20], 5.14 µM (inactive); in assay [17], 76 µM (inactive); in [18] it was > 68.7 µM (inactive). The GI50 in [19] is > 100 µM (inactive).

As for `O=C(CBr)c1ccc2cc(Br)c3ccccc3c2c1`, the GI50 in [1] is 16.4 µM (inactive); in [2] it was 36.3 µM (inactive); in assay [4], 33.3 µM (inactive); in assay [5], 25.1 µM (inactive); in [6], 20.6 µM (inactive); in assay [7], 14.1 µM (inactive). For the same molecule, the GI50 in [8] is 20.9 µM (inactive); in assay [9], 27.2 µM (inactive); in assay [10] it was 19.9 µM (inactive); in assay [11] it was 37.6 µM (inactive); in assay [12] it was 25.1 µM (inactive); in assay [13], 37.4 µM (inactive). Moreover, the GI50 in assay [14] is 25.6 µM (inactive); in assay [15], 12.1 µM (inactive); in assay [16], 4.25 µM (inactive); in assay [20], 26.4 µM (inactive); in assay [17], 24.7 µM (inactive); in assay [18], 24.1 µM (inactive). For the same molecule, in assay [19], the GI50 was 24.5 µM (inactive).

For `NCCNCCNc1ccc(NCCNCCN)c2c1C(=O)c1c(O)ccc(O)c1C2=O`, the GI50 in assay [1] is > 100 µM (inactive); in [2], > 100 µM (inactive); in [4], 38.9 µM (inactive); in assay [5], > 100 µM (inactive); in [7] it was > 100 µM (inactive); in assay [8], > 100 µM (inactive). In addition, the GI50 in assay [9], in assay [10], in [11], in [12], in [13] and in assay [14] was > 100 µM (inactive) throughout. The GI50 in assay [15] is 2.21 µM (inactive); in assay [16], 14 µM (inactive); in [20], 59.7 µM (inactive); in assay [17], > 100 µM (inactive); in assay [18], > 100 µM (inactive); in assay [19], > 100 µM (inactive).

Consider `CCC(C)C(NC(=O)C(CCCCN)NC(=O)C(NC(=O)C(CCC(N)=O)NC(=O)C(N)CCCNC(=N)N)C(C)CC)C(=O)NC(Cc1c[nH]c2ccccc12)C(=O)NC(Cc1ccccc1)C(=O)NC(CCC(N)=O)C(=O)NC(CC(N)=O)C(=O)NC(CCCNC(=N)N)C(=O)NC(CCCNC(=N)N)C(=O)NC(CCSC)C(=O)NC(CCCCN)C(=O)NC(Cc1c[nH]c2ccccc12)C(=O)NC(CCCCN)C(=O)NC(CCCCN)C(=O)N1CCCC1C(=O)NC(C)C(=O)NC(CCCCN)C(=O)NC(CCCNC(=N)N)C(=O)NC(CCCCN)C(=O)NC(CC(C)C)C(=O)NC(Cc1ccccc1)C(=O)NCC(=O)O` (centres undefined) (H-RQIKIWFQNRRMKWKKPAKRKLFG-OH; configuration not given here), for which the GI50 is > 25 µM (inactive) in assay [1]; > 25 µM (inactive) in [2]; 12.4 µM (inactive) in [4]; 12.1 µM (inactive) in [5]; > 25 µM (inactive) in [6]; > 25 µM (inactive) in [9]. For the same molecule, the GI50 in [10] is 16 µM (inactive); in [11], 17.5 µM (inactive); in [12], > 25 µM (inactive); in [13] it was > 25 µM (inactive); in [14], > 25 µM (inactive); in assay [15], > 25 µM (inactive). The GI50 in assay [16], in assay [20], in assay [17], in assay [18] and in [19] was > 25 µM (inactive) each time.
